Assay [1] concerns the target T1, HiBit-BRG1 fusion protein (Homo sapiens, UniProt P51532).
T1 construct: expressed in transfected cells
Nature of the assay: HiBiT-BRG1 cell-based degradation assay (Nano-Glo HiBiT lytic detection, 24 h). The settings on record: HeLa cell line expressing HiBit-BRG1 and LgBit; for Dmax: read-out: BRG1 HiBit Degradation Maximum (%); for DC50: read-out: BRMG1 HiBit Degradation IC50. A digest of the protocol:
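Luminescence from HiBiT/LgBiT complementation after lytic detection reagent was read following 24 h compound exposure of HeLa cells stably carrying HiBiT-BRG1 plus LgBiT (5000 cells/well). Signal scaled to % degradation using DMSO-treated cells as 0% and cells given 2 μM known BRM/BRG1 degrader as 100%.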

In the next assay the target is T2, HiBit-BRM fusion protein (Homo sapiens, UniProt P51531).
T2 construct: expressed in transfected cells
Put plainly: HiBiT-BRM cell-based degradation assay (Nano-Glo HiBiT lytic detection, 24 h). To be noted: HeLa cell line expressing HiBiT-BRM; for DC50: read-out: BRM HiBit Degradation IC50. A digest of the protocol: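 Luminescence from LgBiT complementation quantified remaining HiBiT-BRM in stably expressing HeLa cells after 24 h compound exposure (top final dose 30 μM, 3-fold, 10 points, duplicate). Degradation expressed as percent relative to DMSO and a 2 μM reference degrader.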

T1 sequence (P51532 whole entry, the tested form may be a part): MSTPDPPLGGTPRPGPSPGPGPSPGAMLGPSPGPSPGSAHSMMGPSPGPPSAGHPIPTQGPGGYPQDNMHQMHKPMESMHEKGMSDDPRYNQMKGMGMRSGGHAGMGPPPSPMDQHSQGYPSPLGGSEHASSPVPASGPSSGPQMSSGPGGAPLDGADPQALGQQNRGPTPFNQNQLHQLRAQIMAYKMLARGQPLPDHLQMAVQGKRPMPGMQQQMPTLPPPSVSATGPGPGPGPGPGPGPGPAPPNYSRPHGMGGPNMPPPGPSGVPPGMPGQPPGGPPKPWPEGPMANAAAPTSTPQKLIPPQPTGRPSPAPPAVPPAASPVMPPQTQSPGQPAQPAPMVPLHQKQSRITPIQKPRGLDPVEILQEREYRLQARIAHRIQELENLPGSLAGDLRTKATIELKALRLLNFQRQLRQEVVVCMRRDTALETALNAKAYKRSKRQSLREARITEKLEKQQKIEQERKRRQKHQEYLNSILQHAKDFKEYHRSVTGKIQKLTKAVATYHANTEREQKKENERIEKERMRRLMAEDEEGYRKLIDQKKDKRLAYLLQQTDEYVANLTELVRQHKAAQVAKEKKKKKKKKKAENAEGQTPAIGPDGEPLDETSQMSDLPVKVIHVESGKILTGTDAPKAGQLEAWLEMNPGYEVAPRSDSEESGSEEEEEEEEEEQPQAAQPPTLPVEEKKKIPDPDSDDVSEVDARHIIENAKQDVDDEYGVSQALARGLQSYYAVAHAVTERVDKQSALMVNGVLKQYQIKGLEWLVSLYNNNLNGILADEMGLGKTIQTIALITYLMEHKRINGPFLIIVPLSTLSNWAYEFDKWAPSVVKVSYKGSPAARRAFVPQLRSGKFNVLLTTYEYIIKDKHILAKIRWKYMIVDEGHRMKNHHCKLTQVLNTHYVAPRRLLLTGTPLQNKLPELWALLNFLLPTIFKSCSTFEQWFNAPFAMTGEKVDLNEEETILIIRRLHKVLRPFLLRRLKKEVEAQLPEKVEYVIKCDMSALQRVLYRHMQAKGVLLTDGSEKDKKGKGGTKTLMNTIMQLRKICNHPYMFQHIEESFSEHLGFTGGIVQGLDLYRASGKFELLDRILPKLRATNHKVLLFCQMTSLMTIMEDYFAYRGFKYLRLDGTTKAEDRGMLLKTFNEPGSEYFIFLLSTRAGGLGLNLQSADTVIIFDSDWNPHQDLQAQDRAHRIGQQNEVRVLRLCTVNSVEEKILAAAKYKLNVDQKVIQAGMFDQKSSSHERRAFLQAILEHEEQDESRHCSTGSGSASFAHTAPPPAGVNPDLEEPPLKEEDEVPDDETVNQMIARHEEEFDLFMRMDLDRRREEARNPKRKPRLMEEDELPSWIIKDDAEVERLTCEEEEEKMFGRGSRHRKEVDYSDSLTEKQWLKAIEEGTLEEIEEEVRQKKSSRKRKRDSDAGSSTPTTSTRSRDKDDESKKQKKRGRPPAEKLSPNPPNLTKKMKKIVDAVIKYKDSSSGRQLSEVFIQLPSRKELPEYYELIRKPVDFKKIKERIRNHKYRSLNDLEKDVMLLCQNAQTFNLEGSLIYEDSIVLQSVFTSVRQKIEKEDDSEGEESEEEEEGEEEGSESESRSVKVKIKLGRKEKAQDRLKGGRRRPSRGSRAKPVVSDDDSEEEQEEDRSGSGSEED
T2 sequence (P51531 whole entry, the tested form may be a part): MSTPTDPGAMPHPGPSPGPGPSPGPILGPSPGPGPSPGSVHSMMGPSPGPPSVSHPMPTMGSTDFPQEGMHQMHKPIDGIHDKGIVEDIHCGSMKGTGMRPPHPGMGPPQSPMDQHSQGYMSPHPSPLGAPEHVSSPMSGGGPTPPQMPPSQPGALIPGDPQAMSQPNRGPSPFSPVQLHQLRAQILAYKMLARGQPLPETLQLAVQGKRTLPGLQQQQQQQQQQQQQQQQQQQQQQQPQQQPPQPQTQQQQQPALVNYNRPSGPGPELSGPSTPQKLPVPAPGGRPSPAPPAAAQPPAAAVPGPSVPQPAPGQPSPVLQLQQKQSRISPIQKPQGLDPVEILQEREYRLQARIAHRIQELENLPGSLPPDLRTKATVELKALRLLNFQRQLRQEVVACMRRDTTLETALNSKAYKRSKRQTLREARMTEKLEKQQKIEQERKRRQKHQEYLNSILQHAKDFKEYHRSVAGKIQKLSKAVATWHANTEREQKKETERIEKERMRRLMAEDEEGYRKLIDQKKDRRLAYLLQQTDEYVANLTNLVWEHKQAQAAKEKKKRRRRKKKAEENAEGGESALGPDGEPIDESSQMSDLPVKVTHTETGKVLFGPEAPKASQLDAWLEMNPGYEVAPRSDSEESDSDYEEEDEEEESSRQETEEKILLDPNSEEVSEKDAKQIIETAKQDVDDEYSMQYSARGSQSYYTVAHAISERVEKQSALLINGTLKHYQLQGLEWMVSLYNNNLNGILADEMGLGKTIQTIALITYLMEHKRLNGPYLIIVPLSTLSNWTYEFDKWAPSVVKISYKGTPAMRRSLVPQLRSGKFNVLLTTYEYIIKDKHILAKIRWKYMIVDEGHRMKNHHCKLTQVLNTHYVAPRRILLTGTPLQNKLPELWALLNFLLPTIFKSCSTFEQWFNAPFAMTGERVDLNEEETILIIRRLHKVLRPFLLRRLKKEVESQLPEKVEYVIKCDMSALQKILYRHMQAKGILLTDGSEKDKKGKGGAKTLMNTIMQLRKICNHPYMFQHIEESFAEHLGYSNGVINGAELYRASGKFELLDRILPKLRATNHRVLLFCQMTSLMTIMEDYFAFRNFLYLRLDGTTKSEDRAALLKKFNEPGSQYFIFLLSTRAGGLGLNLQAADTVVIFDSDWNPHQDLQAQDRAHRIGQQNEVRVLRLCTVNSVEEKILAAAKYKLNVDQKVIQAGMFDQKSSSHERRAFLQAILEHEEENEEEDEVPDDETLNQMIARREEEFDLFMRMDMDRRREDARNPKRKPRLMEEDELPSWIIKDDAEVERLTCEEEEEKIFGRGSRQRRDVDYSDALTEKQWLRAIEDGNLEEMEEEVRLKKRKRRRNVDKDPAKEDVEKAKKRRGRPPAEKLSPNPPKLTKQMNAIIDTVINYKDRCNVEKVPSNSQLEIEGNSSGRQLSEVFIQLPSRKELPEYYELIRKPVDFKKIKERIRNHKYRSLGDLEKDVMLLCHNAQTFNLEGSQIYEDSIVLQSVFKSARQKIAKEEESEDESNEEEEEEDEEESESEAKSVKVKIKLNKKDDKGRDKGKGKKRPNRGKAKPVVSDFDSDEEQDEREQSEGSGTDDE

Take `Cc1ncsc1-c1ccc([C@H](C)NC(=O)[C@@H]2C[C@@H](O)CN2C(=O)[C@@H](c2cc(-c3cnc(N4CC[C@@H](c5cc6nnc(-c7ccccc7O)cc6n5C56CC(C5)C6)C4)nc3)no2)C(C)C)cc1` [Compound 94, (2S,4R)-1-((R)-2-(3-(2-((R)-3-(5-(bicyclo[1.1.1]pentan-1-yl)-3-(2-hydroxyphenyl)-5H-pyrrolo[3,2-c]pyridazin-6-yl)pyrrolidin-1-yl)pyrimidin-5-yl)isoxazol-5-yl)-3-methylbutanoyl)-4-hydroxy-N-((S)-1-(4-(4-methylthiazol-5-yl)phenyl)ethyl)pyrrolidine-2-carboxamide]: in assay [1], the Dmax was under 50%. Besides, on HiBit-BRM fusion protein, the “BRM HiBit Degradation Maximum (%)” value is given as “A (“A” indicates maximum degradation ≥75%)” and the DC50 is under 10 nM.
`Cc1ncsc1-c1ccc([C@H](C)NC(=O)[C@@H]2C[C@@H](O)CN2C(=O)[C@@H](c2cc(OCC(=O)N3CC(c4cc5nnc(-c6ccccc6O)cc5n4C)C3)no2)C(C)C)cc1` [Compound 15, (2S,4R)-4-hydroxy-1-((R)-2-(3-(2-(3-(3-(2-hydroxyphenyl)-5-methyl-5H-pyrrolo[3,2-c]pyridazin-6-yl)azetidin-1-yl)-2-oxoethoxy)isoxazol-5-yl)-3-methylbutanoyl)-N-((S)-1-(4-(4-methylthiazol-5-yl)phenyl)ethyl)pyrrolidine-2-carboxamide]: the Dmax in assay [1] was under 50%. At HiBit-BRM fusion protein, the “BRM HiBit Degradation Maximum (%)” value is listed as “A (“A” indicates maximum degradation ≥75%)” and the DC50 is over 100 nM.
On to `Cc1ncsc1-c1ccc([C@H](C)NC(=O)[C@@H]2C[C@@H](O)CN2C(=O)[C@@H](c2cc(N3CCC4(CC[C@H](c5cc6nnc(-c7ccccc7O)cc6n5C5CC5)C4)CC3)no2)C(C)C)cc1` [Compound 96, (2S,4R)-1-((R)-2-(3-((S)-2-(5-cyclopropyl-3-(2-hydroxyphenyl)-5H-pyrrolo[3,2-c]pyridazin-6-yl)-8-azaspiro[4.5]decan-8-yl)isoxazol-5-yl)-3-methylbutanoyl)-4-hydroxy-N-((S)-1-(4-(4-methylthiazol-5-yl)phenyl)ethyl)pyrrolidine-2-carboxamide], for which, in assay [1], the Dmax was over 50% and the DC50 is over 10 nM. Also, at HiBit-BRM fusion protein, the “BRM HiBit Degradation Maximum (%)” value was “A (“A” indicates maximum degradation ≥75%)” and the DC50 was under 10 nM.
With `Cc1ncsc1-c1ccc([C@H](C)NC(=O)[C@@H]2C[C@@H](O)CN2C(=O)[C@@H](c2cc(OCCN3CCC(c4cc5nnc(-c6ccccc6O)cc5n4C)CC3)no2)C(C)C)cc1` [Compound 20, (2S,4R)-4-hydroxy-1-[(2R)-2-[3-(2-{4-[3-(2-hydroxyphenyl)-5-methylpyrrolo[3,2-c]pyridazin-6-yl]piperidin-1-yl}ethoxy)-1,2-oxazol-5-yl]-3-methylbutanoyl]-N-[(1S)-1-[4-(4-methyl-1,3-thiazol-5-yl)phenyl]ethyl]pyrrolidine-2-carboxamide], in assay [1], the Dmax was over 75% and the DC50 was under 10 nM. On HiBit-BRM fusion protein, the “BRM HiBit Degradation Maximum (%)” value is “A (“A” indicates maximum degradation ≥75%)” and the DC50 was under 10 nM.
In the case of `Cc1ncsc1-c1ccc([C@H](C)NC(=O)[C@@H]2C[C@@H](O)CN2C(=O)[C@@H](c2cc(OCC(=O)N3CC(c4cc5nnc(-c6ccccc6O)cc5[nH]4)C3)no2)C(C)C)cc1` [Compound 7, (2S,4R)-4-hydroxy-1-((R)-2-(3-(2-(3-(3-(2-hydroxyphenyl)-5H-pyrrolo[3,2-c]pyridazin-6-yl)azetidin-1-yl)-2-oxoethoxy)isoxazol-5-yl)-3-methylbutanoyl)-N-((S)-1-(4-(4-methylthiazol-5-yl)phenyl)ethyl)pyrrolidine-2-carboxamide], in assay [1], the Dmax is under 50%. Further, on HiBit-BRM fusion protein, the “BRM HiBit Degradation Maximum (%)” value is “A (“A” indicates maximum degradation ≥75%)” and the DC50 is over 100 nM.
Turning to `Cc1ncsc1-c1ccc([C@H](C)NC(=O)[C@@H]2C[C@@H](O)CN2C(=O)[C@@H](c2cc(N3CC[C@@H](c4cc5nnc(-c6ccccc6O)cc5n4C4(C)CC4)C3)no2)C(C)C)cc1` [Compound 81, (2S,4R)-4-hydroxy-1-((R)-2-(3-((R)-3-(3-(2-hydroxyphenyl)-5-(1-methylcyclopropyl)-5H-pyrrolo[3,2-c]pyridazin-6-yl)pyrrolidin-1-yl)isoxazol-5-yl)-3-methylbutanoyl)-N-((S)-1-(4-(4-methylthiazol-5-yl)phenyl)ethyl)pyrrolidine-2-carboxamide], in assay [1], the Dmax is over 75% and the DC50 is under 10 nM. At HiBit-BRM fusion protein, the “BRM HiBit Degradation Maximum (%)” value was “A (“A” indicates maximum degradation ≥75%)” and the DC50 was under 10 nM.
Regarding `Cc1ncsc1-c1ccc([C@H](C)NC(=O)[C@@H]2C[C@@H](O)CN2C(=O)[C@@H](c2cc(N3CC4(CC(c5cc6nnc(-c7ccccc7O)cc6n5C5(CF)CC5)C4)C3)no2)C(C)C)cc1` [Compound 68, (2S,4R)-1-((R)-2-(3-(6-(5-(1-(fluoromethyl)cyclopropyl)-3-(2-hydroxyphenyl)-5H-pyrrolo[3,2-c]pyridazin-6-yl)-2-azaspiro[3.3]heptan-2-yl)isoxazol-5-yl)-3-methylbutanoyl)-4-hydroxy-N-((S)-1-(4-(4-methylthiazol-5-yl)phenyl)ethyl)pyrrolidine-2-carboxamide], the Dmax in assay [1] was under 50%. At HiBit-BRM fusion protein, the “BRM HiBit Degradation Maximum (%)” value was “A (“A” indicates maximum degradation ≥75%)” and the DC50 was under 10 nM.
In the same order, the values of `C#Cc1ccc([C@H](C)NC(=O)[C@@H]2C[C@@H](O)CN2C(=O)C(c2cc(N3CC4(CC(c5cc6nnc(-c7ccccc7O)cc6n5C5CCC5)C4)C3)no2)C(C)C)c(Cl)c1` (stereo partly drawn) [Compound 121, (2S,4R)-N-((S)-1-(2-chloro-4-ethynylphenyl)ethyl)-1-(2-(3-(6-(5-cyclobutyl-3-(2-hydroxyphenyl)-5H-pyrrolo[3,2-c]pyridazin-6-yl)-2-azaspiro[3.3]heptan-2-yl)isoxazol-5-yl)-3-methylbutanoyl)-4-hydroxypyrrolidine-2-carboxamide] are under 50%, “A (“A” indicates maximum degradation ≥75%)” and over 10 nM.
The matching figures for `Cc1ncsc1-c1ccc([C@H](C)NC(=O)[C@@H]2C[C@@H](O)CN2C(=O)[C@@H](c2cc(N(C)CCN3CC(c4cc5nnc(-c6ccccc6O)cc5[nH]4)C3)no2)C(C)C)cc1` [Compound 2, (2S,4R)-4-hydroxy-1-((R)-2-(3-((2-(3-(3-(2-hydroxyphenyl)-5H-pyrrolo[3,2-c]pyridazin-6-yl)azetidin-1-yl)ethyl)(methyl)amino)isoxazol-5-yl)-3-methylbutanoyl)-N-((S)-1-(4-(4-methylthiazol-5-yl)phenyl)ethyl)pyrrolidine-2-carboxamide]: under 50%, “A (“A” indicates maximum degradation ≥75%)” and over 100 nM.
